Results from a compilation of properties of binary mixtures (doi:10.1016/j.molliq.2015.11.008).

Test: xn = mol fraction of the nth substance listed
Settings: 298.15 K, 101 kPa

CC(=O)[O-].CC[NH2+]CC + O
Settings	electrical conductivity [S/m]	viscosity [mPa·s]
x1 = 0.0079	1.4	–
x1 = 0.0285	2.35	–
x1 = 0.0365	2.46	–
x1 = 0.0444	2.49	–
x1 = 0.0602	2.47	–
x1 = 0.0777	2.33	–
x1 = 0.098	–	5.81
x1 = 0.298	–	26.8
x1 = 0.2995	0.965	–
x1 = 0.3994	0.669	–
x1 = 0.403	–	40.7
x1 = 0.4992	0.525	–
x1 = 0.501	–	48.1
x1 = 0.597	–	53.1
x1 = 0.599	0.407	–
x1 = 0.662	–	54.6
x1 = 0.794	0.308	–
x1 = 0.805	–	55.7
x1 = 0.8986	0.282	–
x2 = 0.0048	0.262	–
